From patent US20230117034A1, “PYRAZOLOTRIAZINES” (Bayer Aktiengesellschaft, priority 2019, published 2023)

Key:
CDK9/CycT1 = molecular target: T1, CDK9/CycT1 (Homo sapiens, UniProt P50750); experiment: CDK9/CycT1 high ATP kinase assay (TR-FRET, 2 mM ATP); type: biochemical; conditions: 2 mM ATP (high ATP); median; read-out: CDK9/CyclinT1, 2 mM ATP (high ATP), IC50 (median)
T1 construct: Recombinant full-length His-tagged human CDK9 and CycT1; purchased Life Technologies PV4131; host or cells: insect cells
T1 sequence (P50750 whole entry): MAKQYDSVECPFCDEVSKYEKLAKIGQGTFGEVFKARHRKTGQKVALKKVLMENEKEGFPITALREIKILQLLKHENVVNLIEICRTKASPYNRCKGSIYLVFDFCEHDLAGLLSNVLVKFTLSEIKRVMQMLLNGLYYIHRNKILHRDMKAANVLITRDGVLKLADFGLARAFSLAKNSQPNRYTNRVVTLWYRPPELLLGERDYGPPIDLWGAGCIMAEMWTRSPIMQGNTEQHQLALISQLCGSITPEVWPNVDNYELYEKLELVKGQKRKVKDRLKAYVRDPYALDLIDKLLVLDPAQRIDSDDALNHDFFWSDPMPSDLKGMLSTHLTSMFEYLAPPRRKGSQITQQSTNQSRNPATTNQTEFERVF
T1 sequence (O60563 whole entry partner): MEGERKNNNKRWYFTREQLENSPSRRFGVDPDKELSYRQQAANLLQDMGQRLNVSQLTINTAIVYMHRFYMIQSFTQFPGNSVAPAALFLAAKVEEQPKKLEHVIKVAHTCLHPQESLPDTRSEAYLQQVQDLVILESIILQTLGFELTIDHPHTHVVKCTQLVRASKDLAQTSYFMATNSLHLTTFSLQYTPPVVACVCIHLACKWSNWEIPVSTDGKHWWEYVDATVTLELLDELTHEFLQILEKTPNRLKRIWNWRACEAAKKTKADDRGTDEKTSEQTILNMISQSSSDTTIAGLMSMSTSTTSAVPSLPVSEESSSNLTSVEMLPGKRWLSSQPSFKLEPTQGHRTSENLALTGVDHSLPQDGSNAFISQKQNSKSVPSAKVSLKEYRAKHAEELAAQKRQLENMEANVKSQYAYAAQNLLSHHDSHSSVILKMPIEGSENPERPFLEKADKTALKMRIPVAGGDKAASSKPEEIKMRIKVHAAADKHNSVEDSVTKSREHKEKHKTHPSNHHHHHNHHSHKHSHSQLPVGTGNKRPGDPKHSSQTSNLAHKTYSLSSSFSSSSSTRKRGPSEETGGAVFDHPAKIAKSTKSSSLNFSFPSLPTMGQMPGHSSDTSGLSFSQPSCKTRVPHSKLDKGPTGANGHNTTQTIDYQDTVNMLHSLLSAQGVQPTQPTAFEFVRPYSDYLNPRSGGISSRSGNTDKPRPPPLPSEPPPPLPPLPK
Method: CDK9/CycT1-inhibitory activity of compounds of the present invention at a high ATP concentration after preincubation of enzyme and test compounds was quantified employing the CDK9/CycT1 TR-FRET assay as described in the following paragraphs.
Recombinant full-length His-tagged human CDK9 and CycT1, expressed in insect cells and purified by Ni-NTA affinity chromatography, were purchased from Life Technologies (Cat. No PV4131). As substrate for the kinase reaction biotinylated peptide biotin-Ttds-[…] (C-terminus in amide form) was used which can be purchased e.g. form the company JERINI peptide technologies (Berlin, Germany).
For the assay 50 nanoL of a 100 fold concentrated solution of the test compound in DMSO was pipetted into either a black low volume 384 well microtiter plate or a black 1536 well microtiter plate (both Greiner Bio-One, Frickenhausen, Germany), 2 microL of a solution of CDK9/CycT1 in aqueous assay buffer [50 millimol/L Tris/HCl pH 8.0, 10 millimol/L MgCl2, 1.0 millimol/L dithiothreitol, 0.1 millimol/L sodium ortho-vanadate, 0.01% (v/v) Nonidet-P40 (Sigma)] were added and the mixture was incubated for 15 min at 22° C. to allow pre-binding of the test compounds to the enzyme before the start of the kinase reaction. […] The concentration of CDK9/CycT1 was adjusted depending of the activity of the enzyme lot and was chosen appropriate to have the assay in the linear range, typical concentrations were in the range of 0.5 microg/ml.
The resulting mixture was incubated 1 h at 22° C. to allow the formation of complex between the phosphorylated biotinylated peptide and the detection reagents. Subsequently the amount of phosphorylated substrate was evaluated by measurement of the resonance energy transfer from the Eu-chelate to the streptavidine-XL. Therefore, the fluorescence emissions at 620 nm and 665 nm after excitation at 350 nm was measured in a TR-FRET reader, e.g. a Pherastar (BMG Labtechnologies, Offenburg, Germany) or a Viewlux (Perkin-Elmer). The ratio of the emissions at 665 nm and at […] was taken as the measure for the amount of phosphorylated substrate.

[1] = test system: CAL-120, human breast adenocarcinoma cells; experiment: Proliferation assay CAL-120 (crystal violet, 4 days); type: cell-based; conditions: Homo sapiens, CAL-120, 96 h, CAL-120 cells, median, read-out: Prolif-CAL-120, IC50-[mol/l] (median)
Method: Human tumour cells were originally obtained from the American Type Culture Collection (ATCC), or from the Deutsche Sammlung von Mikroorganismen und Zellkulturen (DSMZ, German Collection of Microorganisms and Cell Cultures). Cultivated tumour cells (CAL-120, human breast adenocarcinoma cells, DSMZ ACC-459; MDA-MB-231, human breast cancer cells, ATCC HTB-26) were plated at a density of 4,000 cells/well in a 96-well multititer plate in 200 microL of their respective growth medium supplemented 10% fetal calf serum. After 24 hours, the cells of one plate (zero-point plate) were stained with crystal violet (see below), while the medium of the other plates was supplemented with the test substances in various concentrations (0 micromol/L, as well as in the range of 0.01-10 micromol/L; the final concentration of the solvent dimethyl sulfoxide was adjusted to 0.1%) using a Tecan HP D300 Digital Dispenser. The cells were incubated for 4 days in the presence of test substances. Cell proliferation was determined by staining the cells with crystal violet: the cells were fixed by adding 20 microL/measuring point of an 11% glutaric aldehyde solution for 15 minutes at room temperature. After three washing cycles of the fixed cells with water, the plates were dried at room temperature. The cells were stained by adding 100 microL/measuring point of a 0.1% crystal violet solution (pH 3.0). After three washing cycles of the stained cells with water, the plates were dried at room temperature. The dye was dissolved by adding 100 microL/measuring point of a 10% acetic acid solution. The extinction was determined by photometry at a wavelength of 595 nm. The change of cell number, in percent, was calculated by normalization of the measured values to the extinction values of the zero-point plate (=0%) and the extinction of the untreated (0 μM) cells (=100%). The IC50 values (inhibitory concentration at 50% of maximal effect) were determined by means of a 4 parameter fit.

[2] = molecular target: T2, CDK12 (nuclear staining in CAL-120 cells) (Homo sapiens, UniProt Q9NYV4); experiment: CDK12 nuclear protein level: immunofluorescence/high content analysis (CAL-120); type: cell-based; conditions: for DC50: CAL-120 cells, 24 h, immunofluorescence, 50% reduction of nuclear CDK12 staining intensity, median, read-out: CDK12 degradation IF, DC50- [mol/l] (median); for (IC50 CDK12 high ATP) to (Degradation DC50 CDK12) ratio: ratio of IC50 CDK12 high ATP kinase assay to DC50 CDK12 degradation (IF, CAL-120)
T2 construct: endogenous in cells; host or cells: CAL-120 human breast cancer cells (DSMZ ACC 459)
T2 sequence (Q9NYV4 whole entry): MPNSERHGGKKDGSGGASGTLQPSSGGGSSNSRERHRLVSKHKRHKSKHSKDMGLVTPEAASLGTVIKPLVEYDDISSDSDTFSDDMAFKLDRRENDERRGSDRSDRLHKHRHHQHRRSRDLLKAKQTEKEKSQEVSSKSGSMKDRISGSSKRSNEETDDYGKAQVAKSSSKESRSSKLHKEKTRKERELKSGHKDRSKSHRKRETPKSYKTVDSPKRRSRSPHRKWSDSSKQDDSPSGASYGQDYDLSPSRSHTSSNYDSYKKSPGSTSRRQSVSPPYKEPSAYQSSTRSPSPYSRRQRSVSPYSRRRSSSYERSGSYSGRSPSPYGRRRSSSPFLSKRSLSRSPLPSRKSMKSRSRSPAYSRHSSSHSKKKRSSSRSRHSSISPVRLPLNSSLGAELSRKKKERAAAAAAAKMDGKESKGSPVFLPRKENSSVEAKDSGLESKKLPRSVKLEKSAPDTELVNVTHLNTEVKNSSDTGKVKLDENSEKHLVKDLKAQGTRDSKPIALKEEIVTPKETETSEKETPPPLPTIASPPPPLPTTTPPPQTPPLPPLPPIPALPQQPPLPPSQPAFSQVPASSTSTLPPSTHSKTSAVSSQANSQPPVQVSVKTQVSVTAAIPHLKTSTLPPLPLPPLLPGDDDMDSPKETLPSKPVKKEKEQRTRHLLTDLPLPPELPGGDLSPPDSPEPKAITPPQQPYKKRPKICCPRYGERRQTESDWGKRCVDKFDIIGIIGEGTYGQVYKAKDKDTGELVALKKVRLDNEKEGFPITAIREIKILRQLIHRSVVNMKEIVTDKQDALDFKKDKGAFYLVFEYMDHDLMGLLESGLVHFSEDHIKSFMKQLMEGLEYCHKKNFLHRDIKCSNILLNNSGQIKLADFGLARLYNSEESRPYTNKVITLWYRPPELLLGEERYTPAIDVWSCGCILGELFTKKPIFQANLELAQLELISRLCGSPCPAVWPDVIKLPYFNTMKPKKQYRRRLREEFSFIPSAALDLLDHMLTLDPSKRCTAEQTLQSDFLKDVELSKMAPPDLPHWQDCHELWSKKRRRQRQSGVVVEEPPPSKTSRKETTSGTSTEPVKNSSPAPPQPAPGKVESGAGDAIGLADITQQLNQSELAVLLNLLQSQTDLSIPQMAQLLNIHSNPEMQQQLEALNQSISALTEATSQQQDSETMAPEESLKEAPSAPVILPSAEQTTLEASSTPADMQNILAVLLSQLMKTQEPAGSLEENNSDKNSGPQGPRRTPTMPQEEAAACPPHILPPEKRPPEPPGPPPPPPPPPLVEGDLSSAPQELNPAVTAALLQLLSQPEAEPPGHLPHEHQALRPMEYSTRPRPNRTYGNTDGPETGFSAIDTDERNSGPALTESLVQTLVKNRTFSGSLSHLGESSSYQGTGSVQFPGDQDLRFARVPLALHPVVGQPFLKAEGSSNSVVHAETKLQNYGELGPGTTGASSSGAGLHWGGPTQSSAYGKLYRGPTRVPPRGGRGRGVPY
T2 sequence (O75909 whole entry partner): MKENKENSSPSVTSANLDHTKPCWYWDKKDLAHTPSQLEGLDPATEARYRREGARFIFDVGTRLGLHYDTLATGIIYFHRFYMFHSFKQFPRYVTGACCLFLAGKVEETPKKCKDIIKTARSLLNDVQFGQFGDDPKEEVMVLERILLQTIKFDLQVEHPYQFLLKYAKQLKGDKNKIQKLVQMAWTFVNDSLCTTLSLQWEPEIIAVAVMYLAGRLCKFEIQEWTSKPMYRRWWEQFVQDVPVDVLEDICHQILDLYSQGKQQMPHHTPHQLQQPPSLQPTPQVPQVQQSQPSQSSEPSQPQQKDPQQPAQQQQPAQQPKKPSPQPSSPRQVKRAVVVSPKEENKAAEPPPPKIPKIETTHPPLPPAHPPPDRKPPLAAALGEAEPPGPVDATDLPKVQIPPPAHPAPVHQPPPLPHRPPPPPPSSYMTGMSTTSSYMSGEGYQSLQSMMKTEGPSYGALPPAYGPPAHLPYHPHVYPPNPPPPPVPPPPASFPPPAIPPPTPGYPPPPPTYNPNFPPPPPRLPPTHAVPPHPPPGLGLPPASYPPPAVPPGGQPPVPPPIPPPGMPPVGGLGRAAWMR
Method: In the context of the present invention, the term “DC50 CDK12” refers to the DC50 values obtained according to the assay described in this section (7) herein below, i.e. the DC50 values for the degradation of CDK12.
Plates are then incubated for 24 h at 37° C. in an humidified incubator and fixed with 4% PFA for 10 min. […] Nuclear and cytoplasmic intensity as well as the nuclear/cytoplasmic intensity ratio is determined by automated image analysis using custom generated scripts (MetaXpress). Data is then transferred to Genedata Screener software, normalized to DMSO and control and DC50 values (degrading concentration to achieve 50% reduction of nuclear CDK12 staining intensity relative to controls) are reported.

SMILES | IC50 (CDK9/CycT1) [µM] | IC50 [1] [µM] | DC50 [2] [µM] | (IC50 CDK12 high ATP) to (Degradation DC50 CDK12) ratio [2]
Brc1cnn2c(NCc3nc4ccccc4[nH]3)nc(N3C[C@@H]4C[C@H]3CO4)nc12 [Example 103, N-[(1H-benzimidazol-2-yl)methyl]-8-bromo-2-[(1S,4S)-2-oxa-5-azabicyclo[2.2.1]heptan-5-yl]pyrazolo[1,5-a][1,3,5]triazin-4-amine] | > 20 | 0.0465 | 0.00536 | 1914
CC(C)c1cnn2c(NCc3nc4ccccc4[nH]3)nc(N3CCOC[C@@H]3C)nc12 [Example 6, N-[(1H-benzimidazol-2-yl)methyl]-2-[(3S)-3-methylmorpholin-4-yl]-8-(propan-2-yl)pyrazolo[1,5-a][1,3,5]triazin-4-amine] | > 16.1 | – | 0.00332 | 537
c1ccc2[nH]c(CNc3nc(N4CCOCC4)nc4c(-c5ccncc5)cnn34)nc2c1 [Example 111, N-[(1H-benzimidazol-2-yl)methyl]-2-(morpholin-4-yl)-8-(pyridin-4-yl)pyrazolo[1,5-a][1,3,5]triazin-4-amine hydrogen chloride (1/1)] | > 1.63 | 0.00896 | 0.00122 | >1337
CCC1COCCN1c1nc(NCc2nc3ccccc3[nH]2)n2ncc(Br)c2n1 (centres unmarked) [Example 116, N-(1H-benzimidazol-2-ylmethyl)-8-bromo-2-(3-ethylmorpholin-4-yl)pyrazolo[1,5-a][1,3,5]triazin-4-amine] | > 20 | 0.047 | 0.00444 | 1517
CC(C)c1cnn2c(NCc3nc4ccccc4[nH]3)nc(N(C)CC(C)(C)O)nc12 [Example 5, 1-{[4-{[(1H-benzimidazol-2-yl)methyl]amino}-8-(propan-2-yl)pyrazolo[1,5-a][1,3,5]triazin-2-yl](methyl)amino}-2-methylpropan-2-ol] | > 20 | – | 0.0114 | 455
CC(C)c1cnn2c(NCc3nc4ccccc4[nH]3)nc(N3CCOC[C@H]3C)nc12 [Example 7, N-[(1H-benzimidazol-2-yl)methyl]-2-[(3R)-3-methylmorpholin-4-yl]-8-(propan-2-yl)pyrazolo[1,5-a][1,3,5]triazin-4-amine] | > 20 | – | 0.0636 | 161
CC(C)c1cnn2c(NCc3nc4ccccc4[nH]3)nc(N3CC4(COC4)C3)nc12 [Example 9, N-[(1H-benzimidazol-2-yl)methyl]-2-(2-oxa-6-azaspiro[3.3]heptan-6-yl)-8-(propan-2-yl)pyrazolo[1,5-a][1,3,5]triazin-4-amine] | > 20 | – | 0.0809 | >247
CC(C)c1cnn2c(NCc3nc4ccccc4[nH]3)nc(NCC(C)(C)O)nc12 [Example 10, 1-{[4-{[(1H-benzimidazol-2-yl)methyl]amino}-8-(propan-2-yl)pyrazolo[1,5-a][1,3,5]triazin-2-yl]amino}-2-methylpropan-2-ol] | > 20 | – | 0.00685 | 1277

The next lines start with the values.

IC50 (CDK9/CycT1) [µM] | IC50 [1] [µM] | DC50 [2] [µM] | (IC50 CDK12 high ATP) to (Degradation DC50 CDK12) ratio [2] | SMILES
0.97 | 0.0547 | 0.0067 | – | Fc1ccc(-c2nnc(CNc3nc(N4CCOCC4)nc4c(Br)cnn34)[nH]2)cc1F [Example 99, 8-bromo-N-{[5-(3,4-difluorophenyl)-4H-1,2,4-triazol-3-yl]methyl}-2-(morpholin-4-yl)pyrazolo[1,5-a][1,3,5]triazin-4-amine]
> 20 | 0.012 | 0.00107 | 1628 | Brc1cnn2c(NCc3nc4ccccc4[nH]3)nc(N3CCOCC3)nc12 [Example 4, N-[(1H-benzimidazol-2-yl)methyl]-8-bromo-2-(morpholin-4-yl)pyrazolo[1,5-a][1,3,5]triazin-4-amine]
> 20 | 0.0065 | 0.0014 | 889 | COc1ccc2[nH]c(CNc3nc(N4CCOCC4)nc4c(Br)cnn34)nc2c1 [Example 160, 8-bromo-N-[(5-methoxy-1H-benzimidazol-2-yl)methyl]-2-(morpholin-4-yl)pyrazolo[1,5-a][1,3,5]triazin-4-amine]
> 20 | – | 0.0207 | >956 | CC(C)c1cnn2c(NCc3nc4ccccc4[nH]3)nc(N3CCCOCC3)nc12 [Example 8, N-[(1H-benzimidazol-2-yl)methyl]-2-(1,4-oxazepan-4-yl)-8-(propan-2-yl)pyrazolo[1,5-a][1,3,5]triazin-4-amine]
> 20 | – | 0.0388 | 210 | NCCCc1cccc2[nH]c(CNc3nc(N4CCOCC4)nc4c(Br)cnn34)nc12.O=CO [Example 114, formic acid-N-{[4-(3-aminopropyl)-1H-benzimidazol-2-yl]methyl}-8-bromo-2-(morpholin-4-yl)pyrazolo[1,5-a][1,3,5]triazin-4-amine (1/1)]
> 20 | – | 0.05 | 134 | NCCc1cccc2[nH]c(CNc3nc(N4CCOCC4)nc4c(Br)cnn34)nc12 [Example 112, N-{[7-(2-aminoethyl)-1H-benzimidazol-2-yl]methyl}-8-bromo-2-(morpholin-4-yl)pyrazolo[1,5-a][1,3,5]triazin-4-amine]
> 18.9 | – | 0.00864 | 197 | NCCc1ccc2[nH]c(CNc3nc(N4CCOCC4)nc4c(Br)cnn34)nc2c1.O=CO [Example 113, formic acid-N-{[5-(2-aminoethyl)-1H-benzimidazol-2-yl]methyl}-8-bromo-2-(morpholin-4-yl)pyrazolo[1,5-a][1,3,5]triazin-4-amine (1/1)]
> 20 | – | 0.0453 | 256 | CC(=O)NCCCc1cccc2[nH]c(CNc3nc(N4CCOCC4)nc4c(Br)cnn34)nc12.O=CO [Example 115, formic acid-N-{3-[2-({[8-bromo-2-(morpholin-4-yl)pyrazolo[1,5-a][1,3,5]triazin-4-yl]amino}methyl)-1H-benzimidazol-4-yl]propyl}acetamide (1/1)]
